Source: publication PMC8433052 (iScience, 2021)
Read-outs that look alike come from different tables or passages of the source.

Key:
SARS-CoV-2 [1] = test: Time-of-addition assay, SARS-CoV-2 in Caco-2 cells; assay type: cell-based; settings: 1 μM added at 3 hpi, read at 24 hpi
Protocol: The time-of-addition assay was performed according to previous reports ([Ohashi et al., 2021]; [Wang et al., 2020]). Briefly, Caco-2 cells were seeded on the day before SARS-CoV-2 infection (MOI of 0.1) and compound treatment. One micromolar HMTU or DMSO was then added at the indicated time points (Whole, Entry, and Post-entry). For “Whole” treatment, the cells were incubated with both the compound and virus for 1 h. After incubation, unbound viruses were removed, and the cells were cultured with HMTU-containing medium for 2 h to allow viral entry. At 3 hpi, culture supernatants were replaced with new HMTU-containing media and maintained until the end of the experiment. For “Entry” treatment, the cells were incubated as described above, and at 3 hpi, HMTU-containing media were replaced with fresh culture media and maintained until the end of the experiments. For “Post-entry” treatment, HMTU was added to the virus-infected cells at 3 hpi and maintained until the end of the experiment. At 24 hpi, total RNA was isolated, and viral RNA was quantified using qRT–PCR analysis as described above. Supernatants were collected, after which serial dilutions of these supernatants were used to inoculate a monolayer of the VeroE6/TMPRSS2 cells. Three days after inoculation, the CPE was scored, and TCID50/mL was calculated to measure viral titers.

[2] = Cytotoxicity against Huh7 cells; assay type: cell-based; settings: human
Protocol: (§1) The MTT (3-[4,5-dimethyl-2-thiazolyl]-2,5-diphenyl-2H-tetrazolium bromide) and resazurin reduction assays were carried out as previously described ([Nobori et al., 2018]; [Sanaki et al., 2019]). These were performed to calculate cell viability following viral induced CPE or cytotoxicity. Assay conditions for flaviviruses are as described in Table 2.

SARS-CoV [3] = assay type: cell-based; settings: MRC5/ACE2 cells, 1 μM, 48 hpi
JEV = test: CPE-based antiviral assay (MTT), JEV in BHK-21; assay type: cell-based; settings: Japanese encephalitis virus, BHK-21, 72 h, read-out: EC50 against JEV
YFV = test: microbe, parasite or virus in culture; assay type: cell-based; settings: Yellow fever virus, BHK-21, 72 h, read-out: EC50 against YFV
HCoV-229E [4] = test: qRT-PCR of viral RNA, HCoV-229E-infected Huh7 cells; assay type: cell-based, Human coronavirus 229E; settings: MOI 0.05, 48 hpi, serially diluted compound
HCoV-OC43 [5] = test: qRT-PCR of viral RNA, HCoV-OC43-infected Huh7 cells; assay type: cell-based, Human coronavirus OC43; settings: MOI 0.1, 48 hpi, serially diluted compound
SARS-CoV-2 [6] = test: qRT-PCR analysis of SARS-CoV-2 in Caco-2 cells (rescreening, supernatant viral RNA); assay type: cell-based; settings: Severe acute respiratory syndrome coronavirus 2; qRT-PCR analysis using Caco-2 cells, MOI 0.1, 48 h
HCoV-OC43 [7] = test: Immunofluorescence assay of viral nucleoprotein, HCoV-OC43 in A549/TMPRSS2 cells; assay type: cell-based, Human coronavirus OC43; settings: HCoV-OC43 MOI 1, 48 hpi
SARS-CoV [8] = assay type: cell-based; settings: supernatants of SARS-CoV-infected Caco-2 cells, 0.5 μM, 48 hpi
ZIKV = test: CPE-based antiviral assay (MTT), ZIKV in BHK-21; assay type: cell-based; settings: Zika virus, BHK-21, 72 h, read-out: EC50 against ZIKV
BHK-21 cells = test: Cytotoxicity assay in BHK-21 cells; assay type: cell-based, Hamster; settings: concentrations up to 20 μM
[9] = Cytotoxicity assay in BHK-21 cells; assay type: cell-based, Hamster; settings: hamster
HCoV-OC43 [10] = test: Resazurin reduction assay, HCoV-OC43-infected MRC5 cells
[11] = Cytotoxicity against MRC5 cells; assay type: cell-based, Human; settings: human, rescreening (Table 3), read-out: CC50
Protocol: as §1

MRC5 cells = test: Cytotoxicity against MRC5 cells; assay type: cell-based, Human; settings: mean from three independent experiments (Table 4), read-out: CC50 MRC5, mean
Protocol: as §1

SARS-CoV-2 [12] = assay type: cell-based
[13] = Cytotoxicity against VeroE6/TMPRSS2 cells; assay type: cell-based; settings: African green monkey
Protocol: as §1

DENV4 = test: CPE-based antiviral assay (resazurin), DENV4 in BHK-21; assay type: cell-based, Dengue virus 4; settings: Dengue virus, DENV4, BHK-21, 120 h, read-out: EC50 against DENV4
SARS-CoV-2 [14] = test: Immunofluorescence assay of viral spike protein, SARS-CoV-2 in MRC5/ACE2 cells; assay type: cell-based
SARS-CoV-2 [15] = test: qRT-PCR of viral RNA, SARS-CoV-2-infected Caco-2 cells; assay type: cell-based; settings: MOI 0.1, 48 hpi
[16] = Cytotoxicity against Caco-2 cells; assay type: cell-based; settings: human
Protocol: as §1

HCoV-OC43 [17] = assay type: cell-based, Human coronavirus OC43
HCoV-229E [18] = test: Resazurin reduction assay, HCoV-229E-infected MRC5 cells; settings: for EC50: Human coronavirus 229E
[19] = Cytotoxicity against A549/TMPRSS2 cells; assay type: cell-based; settings: human
Protocol: as §1

DENV1 = test: CPE-based antiviral assay (resazurin), DENV1 in BHK-21; assay type: cell-based, Dengue virus 1; settings: Dengue virus, DENV1, BHK-21, 120 h, read-out: EC50 against DENV1
DENV2 = test: CPE-based antiviral assay (resazurin), DENV2 in BHK-21; assay type: cell-based, Dengue virus 2; settings: Dengue virus, DENV2, BHK-21, 96 h, read-out: EC50 against DENV2
WNV = test: CPE-based antiviral assay (MTT), WNV in BHK-21; assay type: cell-based; settings: West Nile virus, BHK-21, 72 h, read-out: EC50 against WNV
DENV3 = test: CPE-based antiviral assay (resazurin), DENV3 in BHK-21; assay type: cell-based, Dengue virus 3; settings: Dengue virus, DENV3, BHK-21, 120 h, read-out: EC50 against DENV3
SARS-CoV [20] = assay type: cell-based; settings: Caco-2 cells, MOI 0.1, 48 hpi
[21] = MRC5 cells, resazurin reduction assay

SMILES: Nc1ncnc2c1c(CO)cn2[C@@H]1O[C@H](CO)[C@@H](O)[C@H]1O [HUP1108, 5-hydroxymethyltubercidin]
- intracellular and extracellular viral RNAs, post-entry step (SARS-CoV-2 [1]): significantly reduced
- CC50 [2]: > 20000 nM
- viral spike protein expression (IFA) (SARS-CoV [3]): significantly inhibited
- EC50 (JEV): 500 nM
- EC50 (YFV): 270 nM
- HCoV-229E replication, subgenomic (nucleocapsid) and genomic (ORF1b) RNA transcripts (HCoV-229E [4]): dose-dependent inhibition
- HCoV-OC43 replication, subgenomic (nucleocapsid) and genomic (ORF1b) RNA transcripts (HCoV-OC43 [5]): dose-dependent inhibition
- EC90 (SARS-CoV-2 [6]): 570 nM
- positive signals of viral nucleoprotein (IFA) (HCoV-OC43 [7]): decreased in a dose-dependent fashion
- reduction of progeny virus titer (SARS-CoV [8]): more than 1 log TCID50/mL
- EC50 (ZIKV): 1300 nM
- cytotoxicity (in words) (BHK-21 cells): did not exhibit cytotoxicity
- CC50 [9]: > 20000 nM
- EC50 (HCoV-OC43 [10]; Betacoronavirus 1, OC43, MRC5, read-out: HCoV-OC43 EC50): 350 nM
- EC50 (HCoV-OC43 [10]; Betacoronavirus 1, OC43, MRC5, read-out: HCoV-OC43 EC50, mean): 378 nM
- selectivity index (SI = CC50/EC50) for HCoV-OC43 (HCoV-OC43 [10]; MRC5 cells): > 132
- anti-HCoV-OC43 activity (in words) (HCoV-OC43 [10]; [21]): strong antiviral activities
- CC50 [11]: > 50000 nM
- CC50 (MRC5 cells): > 50000 nM
- reduction of progeny virus titer (SARS-CoV-2 [12]): more than 1 log TCID50/mL
- CC50 [13]: > 20000 nM
- EC50 (DENV4): 520 nM
- viral spike protein expression (IFA) (SARS-CoV-2 [14]): significantly inhibited
- SARS-CoV-2 RNA replication, subgenomic (nucleocapsid) and genomic (RdRp) transcripts (SARS-CoV-2 [15]): inhibited in a dose-dependent manner
- CC50 [16]: > 20000 nM
- reduction in progeny virus titer (HCoV-OC43 [17]): > 1 log
- EC50 (HCoV-229E [18]; MRC5, read-out: HCoV-229E EC50): 430 nM
- EC50 (HCoV-229E [18]; MRC5, read-out: HCoV-229E EC50, mean): 528 nM
- selectivity index (SI = CC50/EC50) for HCoV-229E (HCoV-229E [18]; MRC5 cells): > 94
- anti-HCoV-229E activity (in words) (HCoV-229E [18]; [21]): strong antiviral activities
- CC50 [19]: > 20000 nM
- EC50 (DENV1): 350 nM
- EC50 (DENV2): 240 nM
- EC50 (WNV): 950 nM
- EC50 (DENV3): 420 nM
- SARS-CoV RNA replication, subgenomic (nucleocapsid) and genomic (RdRp) transcripts (SARS-CoV [20]): inhibited in a dose-dependent manner
